Reference: patent US7977304B2, “FK 228 derivates as HDAC inhibitors” (University of Southampton Highfield, priority 2005, dated 2011)
pIC50: −log10 of the molar value.

Experiments:
[1] = tested on: HDAC (Hela Nuclear Extract); test: Activity Assay 5: in vitro HDAC fluorescent activity assay (Biomol kit); assay type: biochemical; conditions: compounds reduced with DTT prior to analysis, 37° C., 1 hour, read-out: Inhibition of HDAC activity IC50
Experimental: We analysed the ability of compounds to inhibit in vitro HDAC activity. In vitro HDAC assays were performed using a HDAC fluorescent activity assay kit (Biomol, UK) according to the manufacturer's instructions. Compounds were reduced prior to analysis; 1 mM compound was reduced with 30 mM DTT in DMSO overnight at room temperature, protected from light. Reactions were then set up in a 96-well plate. […] Serial dilutions were set up for each compound. Reactions containing Hela extract only and assay buffer only were also set up. 25 μl diluted Fluor de Lys™ substrate (100-fold in assay buffer) was added to each reaction, which were then incubated at 37° C. for 1 hour. The reaction was stopped by addition of 50 μl Fluor de Lys™ Developer (20-fold dilution in assay buffer, plus TSA diluted 100-fold). […] Inhibition of in vitro HDAC activity was determined for mean values of duplicate samples as percentages relative to HeLa extract only reactions. IC50 values were calculated using GraphPad Prism software.

MCF7 breast cancer cells = test: Activity Assay 6: CyQuant cell growth inhibition, MCF7; assay type: cell-based; conditions: Homo sapiens, 144 h, MCF7, 6 days
Experimental: (§1) We analysed the ability of compounds to inhibit the in vitro growth of human cancer cells. Cell proliferation assays were performed using the CyQuant™ assay system (Molecular Probes, Inc. USA) according to the manufacturer's instructions. MCF7 breast, A2780 ovarian and PC3 and LNCAP prostate cancer cells were plated in 96 well plates, at a density of 1000 cells for MCF7 cells or 5000 cells for M780/PC3/LNCAP cells, in 100 μl of cell culture medium per well. Compounds were added a minimum of 5 hours later, in serial dilutions in cell culture medium, in 100 μl volumes at 2× final concentration. Cell culture medium was removed after 4 (A2780, PC3 or LNCAP cells) or 6 days (MCF7 cells) by inversion of the plate onto blotting paper and cells were gently washed once with 200 μl PBS. Plates were frozen immediately for a minimum of one hour at −80° C. and then thawed. 200 μl of 1× CyQuant cell lysis buffer supplemented with dye, made according to the manufacturer's instruction, was added immediately to each well and incubated at room temperature for 3-5 minutes. Fluorescence was then measured for each well using a Cytofluor II Fluoresence Multiwell Plate Reader and CytoFluor II software with filters at 480 nm for excitation and 520 nm for emission maxima. Cell proliferation was determined for mean values of duplicate samples as percentages relative to untreated cell samples (=100%). Growth inhibition curves were used to derive IC50 values.

[2] = tested on: TNFα production from peripheral blood mononuclear cells (PBMCs); test: Activity Assay 7: LPS-induced TNFα secretion from PBMCs (QUANTIKINE immunoassay); assay type: cell-based; conditions: Homo sapiens, PBMC
Experimental: We analysed the ability of compounds to inhibit the production of TNFα from peripheral blood mononuclear cells (PBMCs). TNF-α immunoassays were carried out using the QUANTIKINE® Human TNF-α assay kit (R&D systems, Abingdon UK) according to the manufacturer's instructions. […] Compounds were added 1 hour later in volumes of 100 μl at 6× final concentration. Five hours later lipopolysaccharide (LSP, Sigma, Poole, UK) was added in a volume of 10 μl at 60× final concentration. Plates were mixed and left overnight at 37° C. 5% C02. Plates were centrifuged and cell supernatant was transferred to a new plate. The QUANTIKINE® assay reagents and standards were prepared according to the manufacturer instructions. The QUANTIKINE® assay plate was prepared by adding 50 μl of assay diluent RD1F into each well. This was followed by 200 μl of standard or 100 μl of calibrator diluent plus 100 μl cell supernatant; this was incubated for 2 hours at room temperature (RT). The plate was washed using wash buffer 4 times. After the final wash the plate was tapped on clean paper towel to remove all residual buffer. 200 μl of TNF-α conjugate was added to each well and incubated for 1 hour at RT. The plate was then washed as before. The required amount of substrate solution was prepared by adding equal volumes of colour reagents A and B, protecting from light, 200 μl of this mix was added to each well and incubated for 20 mins at RT, protected from light. 50 μl of stop solution was added to each well in the same order as the substrate solution and the plate was read on a Biorad 680 96 well plate reader (Bio-Rad, Hemel Hempstead, UK) at 450 nm with λ correction at 570 nm. TNF-α levels were determined for mean values of duplicate samples using absorbance in nm, calibration zero values were subtracted from all results to correct for the addition of calibrator diluent in the assay.

[3] = tested on: PC3 prostate cancer cells; test: Activity Assay 6: CyQuant cell growth inhibition, PC3; assay type: cell-based; conditions: Homo sapiens, 96 h, PC3, 4 days
Experimental: as §1

[4] = tested on: LNCAP prostate cancer cells; test: Activity Assay 6: CyQuant cell growth inhibition, LNCAP; assay type: cell-based; conditions: Homo sapiens, 96 h, 4 days
Experimental: as §1

[5] = tested on: A2780 ovarian cancer cells; test: Activity Assay 6: CyQuant cell growth inhibition, A2780; assay type: cell-based; conditions: Homo sapiens, 96 h, A2780, 4 days
Experimental: as §1

MCF7 cells = test: Activity Assay 3: cell cycle distribution and survival by propidium iodide flow cytometry; assay type: cell-based; conditions: MCF7, ~10×IC50 for growth inhibition, 24, 48 or 72 hours
Experimental: Method; MCF7 cells were incubated with indicated concentrations of compounds, or left untreated as a control, for various times, as detailed in the figure legends. Cells were collected and the proportion of cells in different phases of the cell cycle determined using propidium iodide staining and flow cytometry as previously described (Purohit et al., Int J Ca 85, 584-9 2000). The proportion of cells with <G0/G1 content (pre G0) relative to total cells was calculated first. The proportion of cells in different cell cycle phases (G0/G1, S, G2/M) was calculated as a proportion of all cells in the cell cycle (i.e., total cells minus cells with <G0/G1 content).
MCF7 cells were incubated with the indicated concentrations of compounds (each equivalent to ˜10×IC50 values for growth inhibition), or DMSO as a solvent control, for 24, 48 or 72 hours. The proportion of cells in different phases of the cell cycle was determined by flow cytometry. Data shown are mean values ±SD, derived from two separate experiments, relative to untreated cells which are normalised to 1.

SMILES: CC(C)[C@H]1NC(=O)[C@H]2CSSCC/C=C/[C@H](CC(=O)N[C@H](Cc3ccccc3)C(=O)N2)OC(=O)CNC1=O [Compound 9B, (E)-(1S,7R,10S,21R)-21-benzyl-7-isopropyl-2-oxa-12,13-dithia-5,8,20,23-tetraaza-bicyclo[8.7.6]tricos-16-ene-3,6,9,19,22-pentaone]
- pIC50 [1]: 7.60
- pIC50 (MCF7 breast cancer cells): 8.54

SMILES: CC(C)[C@H]1NC(=O)C[C@H]2/C=C/CCSSC[C@@H](NC1=O)C(=O)N[C@H](C(C)C)C(=O)NCC(=O)O2 [Compound 9C, (E)-(1S,7R,10S,21R)-7,21-diisopropyl-2-oxa-12,13-dithia-5,8,20,23-tetraaza-bicyclo[8.7.6]tricos-16-ene-3,6,9,19,22-pentaone]
- pIC50 [1]: 8.00
- pIC50 (MCF7 breast cancer cells): 8.28

SMILES: CC(C)[C@H]1NC(=O)[C@H]2CSSCC/C=C/[C@H](CC(=O)N[C@H](C)C(=O)N2)OC(=O)[C@@H](C)NC1=O [Compound 9E, (E)-(1S,4R,7R,10S,21R)-7-isopropyl-4,21-dimethyl-2-oxa-12,13-dithia-5,8,20,23-tetraaza-bicyclo[8.7.6]tricos-16-ene-3,6,9,19,22-pentaone]
- inhibition at 0.2 µM ([2]; Concentration 200 nM): 84%
- pIC50 [3]: 6.53
- pIC50 [4]: 5.92
- pIC50 [1]: 7.06
- pIC50 [5]: 6.19
- pIC50 (MCF7 breast cancer cells): 6.93

SMILES: CC(C)[C@H]1NC(=O)[C@H]2CSSCC/C=C/[C@H](CC(=O)N[C@H](CCC(=O)OC(C)(C)C)C(=O)N2)OC(=O)CNC1=O [Compound 9F, 3-((E)-(1S,7R,10S,21R)-7-Isopropyl-3,6,9,19,22-pentaoxo-2-oxa-12,13-dithia-5,8,20,23-tetraaza-bicyclo[8.7.6]tricos-16-en-21-yl)-propionic acid tert-butyl ester]
- inhibition at 0.0075 µM ([2]; Concentration 7.5 nM): 68%
- pIC50 [3]: 9.10
- pIC50 [4]: 8.17
- pIC50 [1]: 8.10
- pIC50 [5]: 8.52
- pIC50 (MCF7 breast cancer cells): 8.80

SMILES: CC(C)[C@H]1NC(=O)[C@H]2CSSCC/C=C/[C@H](CC(=O)N[C@H](CCC(=O)O)C(=O)N2)OC(=O)CNC1=O [Compound 10F, 3-((E)-(1S,7R,10S,21R)-7-Isopropyl-3,6,9,19,22-pentaoxo-2-oxa-12,13-dithia-5,8,20,23-tetraaza-bicyclo[8.7.6]tricos-16-en-21-yl)-propionic acid]
- pIC50 [1]: 8.77
- pIC50 (MCF7 breast cancer cells): 6.34

SMILES: O=C(CCCCCCC(=O)Nc1ccccc1)NO [SAHA, Suberoylanilide hydroxamic acid, reference compound]
- cell cycle distribution and survival (MCF7 cells): induce a predominant G2/M phase arrest and cell death
